Holding throughout (assay type): functional
In assay [1] the test system is Micrococcus luteus. The assay is described as follows: Minimal inhibitory concentration against Micrococcus luteus FDA16 was determined by 2-fold agar dilution streak method at 37: C for 18 h.
The test system of assay [2] is Escherichia coli. Put plainly: Minimal inhibitory concentration against Escherichia coli K-12 ML1410 was determined by 2-fold agar dilution streak method at 37: C for 18 h.
Assay [3] deals with Pseudomonas aeruginosa. The assay is described as follows: Minimal inhibitory concentration against Pseudomonas aeruginosa 21-75 was determined by 2-fold agar dilution streak method at 37: C for 18 h.
For assay [4], the system named is Pseudomonas aeruginosa. Put plainly: Minimal inhibitory concentration against Pseudomonas aeruginosa GN315 was determined by 2-fold agar dilution streak method at 37: C for 18 h.
Assay [5] deals with Klebsiella pneumoniae. Put plainly: Minimal inhibitory concentration against Klebsiella pneumoniae PCI 602 was determined by 2-fold agar dilution streak method at 37: C for 18 h.
Assay [6] deals with Staphylococcus aureus. The assay is described as follows: Minimal inhibitory concentration against Staphylococcus aureus FDA209P was determined by 2-fold agar dilution streak method at 37: C for 18 h.
Assay [7] relates to Bacillus cereus. Put plainly: Minimal inhibitory concentration against Bacillus cereus ATCC 10702 was determined by 2-fold agar dilution streak method at 37: C for 18 h. To be noted: ATCC 10702, 18 h.
Assay [8] concerns Pseudomonas aeruginosa. The assay is described as follows: Minimal inhibitory concentration against Pseudomonas aeruginosa A3 was determined by 2-fold agar dilution streak method at 37: C for 18 h.
In assay [9] the test system is Escherichia coli. The assay is described as follows: Minimal inhibitory concentration against Escherichia coli JR66/W677 was determined by 2-fold agar dilution streak method at 37: C for 18 h.
In assay [10] the test system is Mycolicibacterium smegmatis. Put plainly: Minimal inhibitory concentration against Mycobacterium smegmatis ATCC607 was determined by 2-fold agar dilution streak method at 37C for 42h.
Assay [11] relates to Serratia marcescens. The assay is described as follows: Minimal inhibitory concentration against Serratia marcescens was determined by 2-fold agar dilution streak method at 37: C for 18 h.
Assay [12] concerns Escherichia coli. The assay is described as follows: Minimal inhibitory concentration against Escherichia coli K-12 was determined by 2-fold agar dilution streak method at 37: C for 18 h. Conditions: K-12, 18 h.
The subject of assay [13] is Bacillus subtilis. Put plainly: Minimal inhibitory concentration against Bacillus subtilis PCI219 was determined by 2-fold agar dilution streak method at 37: C for 18 h.

Values after ≈ are worked out from the molar mass of the structure shown.

Consider `NCC1CCC(N)C(OC2C(N)CC(N=C(N)N)C(OC3OC(CO)C(O)C(N)C3O)C2O)O1` (stereo not given), for which the MIC was over 100 µg/mL in [1]; over 100 µg/mL in assay [2]; over 100 µg/mL in assay [3]; over 100 µg/mL in assay [4]; over 100 µg/mL in assay [5]; 0.78 µg/mL (≈ 1.58 µM) in assay [6]. Besides, the MIC in [7] is 25 µg/mL (≈ 50.7 µM); in [8] it was 25 µg/mL (≈ 50.7 µM); in assay [9] it was over 100 µg/mL; in assay [10] it was 3.13 µg/mL (≈ 6.34 µM); in [11] it was over 100 µg/mL; in assay [12], 50 µg/mL (≈ 101 µM). In assay [13], this molecule gave a minimal inhibitory concentration (MIC) of 0.78 µg/mL (≈ 1.58 µM).

Take `NCCCC(=O)NC1CC(N)C(OC2OC(CN)CCC2N)C(O)C1OC1OC(CO)C(O)C(N)C1O` (stereo not given): the MIC in assay [1] is 100 µg/mL (≈ 186 µM); in assay [2], 25 µg/mL (≈ 46.6 µM); in [3], over 100 µg/mL; in [4], over 100 µg/mL; in assay [5], 12.5 µg/mL (≈ 23.3 µM); in assay [6] it was 1.56 µg/mL (≈ 2.91 µM). The MIC in assay [7] is 6.25 µg/mL (≈ 11.6 µM); in assay [8], 3.13 µg/mL (≈ 5.83 µM); in assay [9], 25 µg/mL (≈ 46.6 µM); in assay [10] it was 6.25 µg/mL (≈ 11.6 µM); in assay [11] it was over 100 µg/mL; in assay [12], 12.5 µg/mL (≈ 23.3 µM). For the same molecule, inhibition of growth in [13] (MIC) required 0.78 µg/mL (≈ 1.45 µM).

For `NCC1CCC(N)C(OC2C(N)CC(NC(=O)CCCN=C(N)N)C(OC3OC(CO)C(O)C(N)C3O)C2O)O1` (stereo not given), the MIC in assay [1] is 100 µg/mL (≈ 173 µM); in assay [2], 25 µg/mL (≈ 43.2 µM); in [3] it was over 100 µg/mL; in assay [4], over 100 µg/mL; in [5] it was 12.5 µg/mL (≈ 21.6 µM); in [6], 1.56 µg/mL (≈ 2.7 µM). In addition, the MIC in assay [7] was 6.25 µg/mL (≈ 10.8 µM); in assay [8] it was 6.25 µg/mL (≈ 10.8 µM); in assay [9], 50 µg/mL (≈ 86.4 µM); in assay [10], 6.25 µg/mL (≈ 10.8 µM); in assay [11], over 100 µg/mL; in assay [12], 12.5 µg/mL (≈ 21.6 µM). This molecule had a minimum inhibitory concentration (MIC) in [13] of 1.56 µg/mL (≈ 2.7 µM).

Regarding `NCC1CCC(N)C(OC2C(N)CC(NC(=O)[C@H](O)CCN=C(N)N)C(OC3OC(CO)C(O)C(N)C3O)C2O)O1` (stereo not given in full), the MIC was 12.5 µg/mL (≈ 21 µM) in assay [1]; 1.56 µg/mL (≈ 2.62 µM) in assay [2]; 12.5 µg/mL (≈ 21 µM) in assay [3]; over 100 µg/mL in assay [4]; 1.56 µg/mL (≈ 2.62 µM) in assay [5]; 0.2 µg/mL (≈ 0.336 µM) in assay [6]. Moreover, the MIC in [7] was 0.78 µg/mL (≈ 1.31 µM); in [8] it was 0.39 µg/mL (≈ 0.656 µM); in [9], 3.13 µg/mL (≈ 5.26 µM); in [10], 0.39 µg/mL (≈ 0.656 µM); in [11], 25 µg/mL (≈ 42 µM); in assay [12], 0.78 µg/mL (≈ 1.31 µM). The molecule also gave an MIC in [13] of 0.1 µg/mL (≈ 0.168 µM).

As for `NCC1CCC(N)C(OC2C(N)CC(NC(=O)[C@H](N)CCCN=C(N)N)C(OC3OC(CO)C(O)C(N)C3O)C2O)O1` (stereo not given in full), the minimum inhibitory concentration (MIC) in [1] is over 100 µg/mL; in [2], over 100 µg/mL; in assay [3] it was over 100 µg/mL; in [4], over 100 µg/mL; in assay [5] it was 100 µg/mL (≈ 165 µM); in [6], 6.25 µg/mL (≈ 10.3 µM). Also, the MIC is 25 µg/mL (≈ 41.1 µM) in [7]; 100 µg/mL (≈ 165 µM) in assay [8]; over 100 µg/mL in assay [9]; 25 µg/mL (≈ 41.1 µM) in assay [10]; over 100 µg/mL in assay [11]; 100 µg/mL (≈ 165 µM) in [12]. In addition, 3.13 µg/mL (≈ 5.15 µM) was the least that counted as inhibitory in assay [13] (MIC).

The values are drawn from ChEMBL document CHEMBL1143545, “A proof of the specificity of kanamycin-ribosomal RNA interaction with designed synthetic analogs and the antibacterial activity” (2005).
